Values of other authors in patent US8859001B2, “Fenoldopam formulations and pro-drug derivatives” (priority 2007, dated 2014).
Counter-ions that a name gives are not always drawn. Like-named read-outs stand apart in the source and are kept apart here.

How the values were obtained:
[1] = test system: human lymphoma and leukemia lines (Jurkat, HuT-78, K-562, Daudi, Raji); conditions: for effectiveness in killing lymphoma and leukemia: selective dopamine D1/5 receptor agonists tested
[2] = IV infusion
patients = conditions: clinical use
[3] = test system: TCR-activated human normal peripheral T-cells
[4] = test system: resting (i.e., not TCR-activated) human normal peripheral T-cells; conditions: in vitro
mice = conditions: mouse, in vivo, po

## Cl.NC[C@@H]1O[C@H](c2ccccc2)Cc2c1ccc(O)c2O (racemic) [A 68930 hydrochloride, cis-(±)-1-(aminomethyl)-3,4-dihydro-3-phenyl-1H-2-benzopyran-5,6-diol hydrochloride]
[1]
  effectiveness in killing lymphoma and leukemia: effective in killing lymphoma and leukemia

## Oc1ccc(C2CNCCc3c2cc(O)c(O)c3Cl)cc1 (racemic) [Fenoldopam mesylate, 6-chloro-2,3,4,5-tetrahydro-1-(4-hydroxyphenyl)-1H-3-benzazepine-7,8-diol, methanesulfonate]
HCl/KCl buffer pH 1.5
  solubility: 9100 µg/mL
Buffer pH 6.8
  solubility: 130 µg/mL
ethanol
  solubility in ethanol: sparingly soluble
methanol
  solubility in methanol: sparingly soluble
pH 7.5
  solubility: 60 µg/mL
Propylene glycol
  solubility in propylene glycol: soluble
water
  solubility in water: sparingly soluble
[2]
  half life T1/2: ~5 min
patients
  patients reporting the major side effects (headache, flushing and nausea): ≤ 10%
[1]
  time to start of measurable cell death after exposure: 1 to 60 min
[1]; 1 mM-0.01 mM fenoldopam mesylate, five lymphoma/leukemia lines
  death of cancer cells on in vitro exposure: death of all, or the vast majority of, these cancer cells
[1]; cancer cells, after 72 hr, concentrations within 0.1 mM-0.1 nM
  death of cells (number of live and dead cells): over 98%
[3]; in vitro
  killing of TCR-activated T-cells: kills potently a substantial proportion
[3]; normal TCR-activated T-cells, after 72 hr, concentrations within 0.1 mM-0.1 nM
  death of cells (number of live and dead cells): over 98%
[4]
  effect on resting T-cells: hardly affecting
α2-adrenoceptors
  affinity: moderate affinity
D2-like receptors
  affinity: no significant affinity
α1 adrenoceptors
  affinity: no significant affinity
β adrenoceptors
  affinity: no significant affinity
5HT1 receptors
  affinity: no significant affinity
5HT2 receptors
  affinity: no significant affinity
Muscarinic receptors
  affinity: no significant affinity

## Br.Oc1cc2c(cc1O)C(c1ccccc1)CNCC2 (racemic) [SKF 38393 hydrobromide, (±)-1-phenyl-2,3,4,5-tetrahydro-(1H)-3-benzazepine-7,8-diol hydrobromide]
[1]
  effectiveness in killing lymphoma and leukemia: effective in killing lymphoma and leukemia

## Cl.NC[C@@H]1O[C@H](C23CC4CC(CC(C4)C2)C3)Cc2c1ccc(O)c2O [A 77636 hydrochloride, (1R-cis)-1-(aminomethyl)-3,4-dihydro-3-tricyclo[3.3.1.13,7]dec-1-yl-[1H]-2-benzopyran-5,6-diol hydrochloride]
[1]; compared among dopamine receptor agonists
  relative effectiveness as cancer cell killer: the most effective cancer killers
[1]
  effectiveness in killing lymphoma and leukemia: effective in killing lymphoma and leukemia
[3]; compared among highly selective D1R agonists
  relative effectiveness as killer of TCR-activated T-cells: the most effective killers of TCR-activated T-cells

## CCOC(=O)C(C)O (stereo not shown) [Ethyl lactate, 2-hydroxypropanoic acid ethyl ester]
mice
  LD50: higher than 5 g/kg
